Data published in patent US20040224914A1, “Method for treatment of angiogenic disorders” (The University of British Columbia, priority 2003, published 2004).

Legend:
HUVECS [1] = assay: HUVECS cell viability (mts) after antisense with or without drug; format: cell-based, human
Description: HUVECS were grown for 2 days in wells after seeding at 1200 per well. Antisense oligonucleotide of Seq. ID No. 5 (4 μg/ml with LIPOFECTIN™) was added in serum free medium and incubated with the cells for 4 hours. Then 100 μl of serum was added and incubation was continued overnight. The next day, 150 μl of drug solution in serum medium was added. After two days, 20 μl of mts solution was added and left for approximately 3 hours. Cell viability was determined as the difference between absorption at 490 and 595 nm.

HUVECS [2] = conditions: by the induction of apoptosis; cited from earlier work
[3] = Table 1 series, AS 50 nM, no drug
[4] = Table 1 series, AS 100 nM, no drug
[5] = Table 1 series, AS 200 nM, no drug
[6] = Table 1 series, Drug (100 nM paclitaxel) + AS 50 nM
[7] = Table 1 series, Drug (100 nM paclitaxel) + AS 100 nM
[8] = Table 1 series, Drug (100 nM paclitaxel) + AS 200 nM
[9] = Table 2 series, AS 50 nM, no drug
[10] = Table 2 series, AS 100 nM, no drug
[11] = Table 2 series, AS 200 nM, no drug
[12] = Table 2 series, Drug (100 nM camptothecin) + AS 50 nM
[13] = Table 2 series, Drug (100 nM camptothecin) + AS 100 nM
[14] = Table 2 series, Drug (100 nM camptothecin) + AS 200 nM
[15] = Table 3 series, AS 50 nM, no drug
[16] = Table 3 series, AS 100 nM, no drug
[17] = Table 3 series, AS 200 nM, no drug
[18] = Table 3 series, Drug (200 nM doxorubicin) + AS 50 nM
[19] = Table 3 series, Drug (200 nM doxorubicin) + AS 100 nM
[20] = Table 3 series, Drug (200 nM doxorubicin) + AS 200 nM
[21] = Table 1 series, Drug alone (100 nM paclitaxel)
[22] = Table 2 series, Drug alone (100 nM camptothecin)
[23] = Table 3 series, Drug alone (200 nM doxorubicin)

AS: Antisense oligonucleotide of Seq. ID No. 5, which reduces the effective amount of clusterin (antisense CAGCAGCAGAGTCTTCATCAT; listed as DNA, chemistry not given here)
cell viability response to antisense concentration (HUVECS [1]; FIG. 1, paclitaxel series): dose dependent response | cell viability response to antisense in the presence of drug versus absence (HUVECS [1]; FIG. 1, in the presence of 100 nM paclitaxel): the response is greater | cell viability response to antisense concentration (HUVECS [1]; FIG. 2, camptothecin series): dose dependent response | cell viability response to antisense in the presence of drug versus absence (HUVECS [1]; FIG. 2, in the presence of 100 nM camptothecin): the response is greater | cell viability response to antisense concentration (HUVECS [1]; FIG. 3, doxorubicin series): dose dependent response | cell viability response to antisense in the presence of drug versus absence (HUVECS [1]; FIG. 3, in the presence of 200 nM doxorubicin): the response is greater | absorbance at 490 nm (mts, cell viability) (HUVECS [1]; [3]): 0.66 | absorbance at 595 nm (mts, cell viability) (HUVECS [1]; [3]): 0.04 | absorbance at 490 nm (mts, cell viability) (HUVECS [1]; [4]): 0.40 | absorbance at 595 nm (mts, cell viability) (HUVECS [1]; [4]): 0.09 | absorbance at 490 nm (mts, cell viability) (HUVECS [1]; [5]): 0.28 | absorbance at 595 nm (mts, cell viability) (HUVECS [1]; [5]): 0.07 | absorbance at 490 nm (mts, cell viability) (HUVECS [1]; [6]): 0.50 | absorbance at 595 nm (mts, cell viability) (HUVECS [1]; [6]): 0.09 | absorbance at 490 nm (mts, cell viability) (HUVECS [1]; [7]): 0.24 | absorbance at 595 nm (mts, cell viability) (HUVECS [1]; [7]): 0.04 | absorbance at 490 nm (mts, cell viability) (HUVECS [1]; [8]): 0.17 | absorbance at 595 nm (mts, cell viability) (HUVECS [1]; [8]): 0.05 | absorbance at 490 nm (mts, cell viability) (HUVECS [1]; [9]): 0.66 | absorbance at 595 nm (mts, cell viability) (HUVECS [1]; [9]): 0.10 | absorbance at 490 nm (mts, cell viability) (HUVECS [1]; [10]): 0.39 | absorbance at 595 nm (mts, cell viability) (HUVECS [1]; [10]): 0.06 | absorbance at 490 nm (mts, cell viability) (HUVECS [1]; [11]): 0.21 | absorbance at 595 nm (mts, cell viability) (HUVECS [1]; [11]): 0.04 | absorbance at 490 nm (mts, cell viability) (HUVECS [1]; [12]): 0.53 | absorbance at 595 nm (mts, cell viability) (HUVECS [1]; [12]): 0.07 | absorbance at 490 nm (mts, cell viability) (HUVECS [1]; [13]): 0.31 | absorbance at 595 nm (mts, cell viability) (HUVECS [1]; [13]): 0.08 | absorbance at 490 nm (mts, cell viability) (HUVECS [1]; [14]): 0.15 | absorbance at 595 nm (mts, cell viability) (HUVECS [1]; [14]): 0.05 | absorbance at 490 nm (mts, cell viability) (HUVECS [1]; [15]): 0.66 | absorbance at 595 nm (mts, cell viability) (HUVECS [1]; [15]): 0.07 | absorbance at 490 nm (mts, cell viability) (HUVECS [1]; [16]): 0.35 | absorbance at 595 nm (mts, cell viability) (HUVECS [1]; [16]): 0.05 | absorbance at 490 nm (mts, cell viability) (HUVECS [1]; [17]): 0.22 | absorbance at 595 nm (mts, cell viability) (HUVECS [1]; [17]): 0.04 | absorbance at 490 nm (mts, cell viability) (HUVECS [1]; [18]): 0.66 | absorbance at 595 nm (mts, cell viability) (HUVECS [1]; [18]): 0.06 | absorbance at 490 nm (mts, cell viability) (HUVECS [1]; [19]): 0.32 | absorbance at 595 nm (mts, cell viability) (HUVECS [1]; [19]): 0.04 | absorbance at 490 nm (mts, cell viability) (HUVECS [1]; [20]): 0.18 | absorbance at 595 nm (mts, cell viability) (HUVECS [1]; [20]): 0.02 | effect of antisense on inhibition of cell proliferation induced by antiproliferative drugs (HUVECS [1]; paclitaxel, camptothecin, doxorubicin, downregulation of clusterin): enhanced

CC(=O)O[C@H]1C(=O)[C@@]2(C)[C@H]([C@H](OC(=O)c3ccccc3)[C@]3(O)C[C@H](OC(=O)[C@H](O)[C@@H](NC(=O)c4ccccc4)c4ccccc4)C(C)=C1C3(C)C)[C@]1(OC(C)=O)CO[C@@H]1C[C@@H]2O [paclitaxel, reference compound]
concentration range that inhibits Huvecs (HUVECS [2]): low nanomolar range | absorbance at 490 nm (mts, cell viability) (HUVECS [1]; [21]): 0.53 | absorbance at 595 nm (mts, cell viability) (HUVECS [1]; [21]): 0.12

CC[C@@]1(O)C(=O)OCc2c1cc1n(c2=O)Cc2cc3ccccc3nc2-1 [camptothecin, reference compound]
concentration range that inhibits Huvecs (HUVECS [2]): low nanomolar range | absorbance at 490 nm (mts, cell viability) (HUVECS [1]; [22]): 0.55 | absorbance at 595 nm (mts, cell viability) (HUVECS [1]; [22]): 0.07

COc1cccc2c1C(=O)c1c(O)c3c(c(O)c1C2=O)C[C@@](O)(C(=O)CO)C[C@@H]3O[C@H]1C[C@H](N)[C@H](O)[C@H](C)O1 [doxorubicin, reference compound]
concentration range that inhibits Huvecs (HUVECS [2]): low nanomolar range | absorbance at 490 nm (mts, cell viability) (HUVECS [1]; [23]): 0.74 | absorbance at 595 nm (mts, cell viability) (HUVECS [1]; [23]): 0.08
